Test results from the NIST ThermoML archive (doi:10.1016/j.jct.2014.11.007).

Experiment: mn = molality of the nth substance listed, in mol/kg
Settings: 100 kPa, Liquid; for speed of sound: Frequency=3 MHz, Sing-around technique in a fixed-path interferometer; for mass density: Vibrating tube method

O=C([O-])Cc1ccccc1Nc1c(Cl)cccc1Cl.[Na+] [sodium diclofenac] + O
Settings	mass density, 293.15 K [kg/m3]	mass density, 298.15 K [kg/m3]	mass density, 303.15 K [kg/m3]	mass density, 308.15 K [kg/m3]	mass density, 313.15 K [kg/m3]	speed of sound, 293.15 K [m/s]	speed of sound, 298.15 K [m/s]	speed of sound, 303.15 K [m/s]	speed of sound, 308.15 K [m/s]	speed of sound, 313.15 K [m/s]
m1 = 0.00165	998.454	997.297	995.899	994.285	992.465	1483.5	1497.6	1509.9	1520.6	1529.6
m1 = 0.00255	998.563	997.404	996.005	994.389	992.569	1483.7	1497.7	1510	1520.7	1529.7
m1 = 0.0027	998.582	997.423	996.023	994.407	992.587	1483.7	1497.7	1510	1520.7	1529.7
m1 = 0.00314	998.638	997.477	996.078	994.461	992.64	1483.7	1497.8	1510.1	1520.7	1529.8
m1 = 0.00352	998.687	997.527	996.125	994.508	992.687	1483.8	1497.8	1510.1	1520.8	1529.8
m1 = 0.00413	998.769	997.607	996.205	994.588	992.767	1483.9	1497.9	1510.2	1520.8	1529.8
m1 = 0.00504	998.896	997.733	996.33	994.71	992.886	1484	1498	1510.3	1520.9	1529.9
m1 = 0.00604	999.044	997.88	996.477	994.853	993.027	1484.1	1498.1	1510.4	1521	1530
m1 = 0.00698	999.192	998.027	996.618	994.995	993.169	1484.2	1498.2	1510.5	1521.1	1530.1
m1 = 0.00742	999.257	998.095	996.689	995.064	993.238	1484.3	1498.3	1510.6	1521.1	1530.1
